In PMC12612594, “Nuclear Magnetic Resonance‐based fragment screen of the E3 ligase Fem‐1 homolog B” (Protein Science : A Publication of the Protein Society, 2025):

What was measured:
FEM1B‐12 = FEM1B‐12 (Homo sapiens, UniProt Q9UK73); test: NMR titration (1H-13C-methyl SOFAST HMQC) of fragments; type: binding; conditions: for Kd: fragment 0.0625–2 mM, 100 μM 13C-methyl labeled FEM1B‐12, 310 K, Hill's equation model, read-out: Kd (dissociation constant by NMR titration); for higher affinity than the reference molecule VU0417412: ratio of KD values vs VU0417412
Description: Using ^1H‐^13C‐methyl SOFAST HMQC NMR, 4608 structurally diverse fragments were prepared as 12‐fragment mixtures at the concentration of 800 μM per compound and screened against 100 μM FEM1B‐12. The spectra of FEM1B in the presence of the fragment mixtures were compared to the spectrum of ligand‐free FEM1B to identify fragment hits. Twelve‐fragment mixture hits were subsequently deconvoluted by testing individual fragments for binding. In total, 18 fragment hits were identified ([…]) in the screen. Three chemical shift patterns were observed among the 18 fragment hits (Figure 2), with pattern three having two sub‐patterns with the same residues shifting in different directions. […] The dissociation constants of the fragments were determined by NMR titration using fragment concentrations ranging from 0.0625 to 2 mM (Figure 2) (Henning et al., [2022]).
All ^15N‐TROSY NMR experiments were carried out at 310 K using a 900 MHz Bruker Avance III spectrometer equipped with a TXI/TCI CryoProbe and a Bruker SampleJet. All 1H‐13C‐SOFAST HMQC NMR experiments were carried out at 310 K using a 600 MHz Bruker AV‐III‐600 Spectrometer with a TCI CryoProbe and a Bruker SampleJet. Two‐dimensional ^1H‐^15 TROSY spectra of 150 μM FEM1B‐12 and ^1H‐^13C‐SOFAST HMQC spectra of 100 μM FEM1B‐12 were recorded using 30‐min acquisition times and analyzed using Topspin 4.1.4 (Bruker).
HMQC titration experiments were used to determine binding affinity of the fragment hits identified from the screen. The changes in ^1H‐^13C chemical shifts of selectively labeled sidechain resonances upon the addition of increasing concentrations of the fragments (0.0625–2 mM) were analyzed. The binding affinities (KDs) of the fragments were calculated using the Hill's equation model in Prism 10 (GraphPad).

FEM1B [1] = test: LC-coupled tandem mass spectrometry, site of covalent attachment; type: binding; conditions: FEM1B incubated with five times the concentration of compound for 48 h, trypsin digest, LC-MS/MS
Description: To assess the potential for covalent binding of VU0416476 to FEM1B, we used LC‐coupled tandem mass spectrometry to identify the site of covalent attachment. After FEM1B was incubated with five times the concentration of VU0416476 for 48 h, the protein was digested with sequencing‐grade trypsin, and peptides were analyzed by LC‐MS/MS.
FEM1B incubated with five times the concentration of VU0416476 were brought to a final concentration of 5% SDS, reduced with 20 mM DTT at 55°C for 20 min, and alkylated with 40 mM iodoacetamide for 30 min in the dark at room temperature. The samples were then prepared for digestion on S‐Trap™ micro spin columns (ProtiFi) following the manufacturer's instructions. Aqueous phosphoric acid was added to a final concentration of 2.5%, followed by the addition of 90% methanol containing 100 mM TEAB (S‐Trap binding/wash buffer) at 6× the volume. Samples were loaded onto S‐Trap columns and centrifuged at 4000g. Columns were washed four times with binding/wash buffer. […] Eluted peptides were dried in a speed‐vac concentrator, reconstituted in aqueous 0.2% formic acid, and analyzed by LC‐coupled tandem mass spectrometry (LC–MS/MS) using similar methods to those described in the work of Howard et al. ([2024]). […] Peptides were eluted at a flow rate of 350 nL/min, using a 90‐min gradient, and were analyzed on an Orbitrap Exploris 480 mass spectrometer (Thermo Scientific). […]

recombinant mouse FEM1B = system: recombinant mouse FEM1B; parameters: method as in Henning et al., [2022]; conditions: TAMARA‐FNIP1 degron, ref Henning et al., [2022], read-out: 50% inhibitory concentration (IC50); cited from earlier work
FEM1B [2] = system: FEM1B; parameters: method as in Henning et al., [2022]; conditions: ref Henning et al., [2022]; cited from earlier work

FEM1B‐12, sequence (Q9UK73 1-356): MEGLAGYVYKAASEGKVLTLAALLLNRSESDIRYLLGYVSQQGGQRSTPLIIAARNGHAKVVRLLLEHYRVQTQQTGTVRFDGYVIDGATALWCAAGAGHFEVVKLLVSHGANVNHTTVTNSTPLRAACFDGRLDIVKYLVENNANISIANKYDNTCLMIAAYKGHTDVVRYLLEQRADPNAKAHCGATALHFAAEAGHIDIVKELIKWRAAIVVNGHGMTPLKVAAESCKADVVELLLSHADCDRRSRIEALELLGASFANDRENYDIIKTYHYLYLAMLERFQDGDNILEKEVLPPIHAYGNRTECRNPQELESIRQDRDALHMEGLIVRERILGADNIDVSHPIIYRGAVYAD

Kd (FEM1B‐12) [µM]	SMILES	other results
280	O=C(Nc1ccc(F)cc1)c1cccs1 [VU0417412]	–
–	CC(C)(C)n1ncc(Cl)c(Cl)c1=O [VU0416476]	site of covalent attachment (FEM1B [1]): covalently binds to Cys186
1130	O=C(O)c1cccc(N2CCCC2=O)c1 [VU0081201]	–
–	N#CCCN(C(=O)CCl)c1ccc2c(c1)OCCO2 [EN106]	IC50 (recombinant mouse FEM1B): 2.2 µM; site of covalent binding (FEM1B [2]): covalently bind to Cys186
260	CC(C)c1ccc(NC(=O)c2cnccn2)cc1 [VU0412674]	–
960	CC(C)(C)N1C(=O)c2ccc(C(=O)O)cc2C1=O [VU0023775]	–
80	CC(=O)c1cccc(NC(=O)c2cccs2)c1 [VU0013947]	higher affinity than the reference molecule VU0417412 (FEM1B‐12): 3.5 ×
100	COCc1ccc(NC(=O)c2cccs2)cc1 [VU0175318]	higher affinity than the reference molecule VU0417412 (FEM1B‐12): 2.8 ×
